Reference: BindingDB's records for doi:10.1124/jpet.103.059675 (Wyeth Research, 2004)

Columns and labels:
[1] = molecular target: Disintegrin and metalloproteinase domain-containing protein 17 (Homo sapiens, UniProt P78536); test: TACE Inhibition Assay; conditions: pH 7.4; 22 °C
Method: Compounds were tested for their ability to inhibit the cleavage of the substrate by the purified enzyme in a fluorescence-based fluorescence resonance energy transfer (FRET) assay. The human TACE protein was pretreated with the inhibitors for 10 min at room temperature. The reaction was initiated by the addition of pro-TNF-alpha peptide to the TACE protein, and the increase in fluorescence was monitored at excitation of 320 nm and emission of 420 nm over a period of 10 min. Under this assay condition, the IC50 value is very close to the Ki value.

[2] = molecular target: 72 kDa type IV collagenase (Homo sapiens, UniProt P08253); test: MMP Inhibition Assay; conditions: pH 7.4; 22 °C
Method: (§1) A continuous assay was used in which the substrate is a synthetic peptide containing a fluorescent group (7-methoxycoumarin), which is quenched by energy transfer to a 2,4-dinitrophenyl group. […] The enzymatic reactions were initiated by adding the substrate, and the initial rate of the cleavage reaction was determined immediately after substrate addition.

Interstitial collagenase = molecular target: T1, Interstitial collagenase (Homo sapiens, UniProt P03956); test: MMP Inhibition Assay; conditions: pH 7.4; 22 °C
T1 sequence (P03956 whole entry): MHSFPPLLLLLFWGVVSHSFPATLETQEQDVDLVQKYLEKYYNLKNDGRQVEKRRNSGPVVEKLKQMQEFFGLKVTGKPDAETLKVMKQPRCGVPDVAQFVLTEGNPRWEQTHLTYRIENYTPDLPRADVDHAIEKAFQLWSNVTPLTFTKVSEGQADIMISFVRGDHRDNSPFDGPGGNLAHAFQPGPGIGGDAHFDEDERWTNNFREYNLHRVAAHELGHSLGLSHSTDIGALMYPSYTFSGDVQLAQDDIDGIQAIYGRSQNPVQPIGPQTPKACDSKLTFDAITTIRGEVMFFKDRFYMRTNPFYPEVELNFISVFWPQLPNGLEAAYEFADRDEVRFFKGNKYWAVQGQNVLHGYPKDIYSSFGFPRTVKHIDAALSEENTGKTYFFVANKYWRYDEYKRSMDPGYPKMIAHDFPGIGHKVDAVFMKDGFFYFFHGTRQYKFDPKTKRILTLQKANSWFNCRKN
Method: as §1

Matrilysin = molecular target: T2, Matrilysin (Homo sapiens, UniProt P09237); test: MMP Inhibition Assay; conditions: pH 7.4; 22 °C
T2 sequence (P09237 whole entry): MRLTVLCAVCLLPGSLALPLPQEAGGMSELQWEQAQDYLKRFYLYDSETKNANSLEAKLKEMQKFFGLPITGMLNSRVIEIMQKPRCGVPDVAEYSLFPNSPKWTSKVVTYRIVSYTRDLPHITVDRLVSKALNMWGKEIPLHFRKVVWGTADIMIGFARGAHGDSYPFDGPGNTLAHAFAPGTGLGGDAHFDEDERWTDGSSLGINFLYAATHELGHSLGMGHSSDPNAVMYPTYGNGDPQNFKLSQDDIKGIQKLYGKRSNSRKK
Method: as §1

[3] = molecular target: Matrix metalloproteinase-14 (Homo sapiens, UniProt P50281); test: MMP Inhibition Assay; conditions: pH 7.4; 22 °C
Method: as §1

[4] = molecular target: T3, A disintegrin and metalloproteinase with thrombospondin motifs 4 (Homo sapiens, UniProt O75173); test: Aggrecanase-1 Inhibition Assay; conditions: pH 7.5; 37 °C
T3 sequence (O75173 whole entry): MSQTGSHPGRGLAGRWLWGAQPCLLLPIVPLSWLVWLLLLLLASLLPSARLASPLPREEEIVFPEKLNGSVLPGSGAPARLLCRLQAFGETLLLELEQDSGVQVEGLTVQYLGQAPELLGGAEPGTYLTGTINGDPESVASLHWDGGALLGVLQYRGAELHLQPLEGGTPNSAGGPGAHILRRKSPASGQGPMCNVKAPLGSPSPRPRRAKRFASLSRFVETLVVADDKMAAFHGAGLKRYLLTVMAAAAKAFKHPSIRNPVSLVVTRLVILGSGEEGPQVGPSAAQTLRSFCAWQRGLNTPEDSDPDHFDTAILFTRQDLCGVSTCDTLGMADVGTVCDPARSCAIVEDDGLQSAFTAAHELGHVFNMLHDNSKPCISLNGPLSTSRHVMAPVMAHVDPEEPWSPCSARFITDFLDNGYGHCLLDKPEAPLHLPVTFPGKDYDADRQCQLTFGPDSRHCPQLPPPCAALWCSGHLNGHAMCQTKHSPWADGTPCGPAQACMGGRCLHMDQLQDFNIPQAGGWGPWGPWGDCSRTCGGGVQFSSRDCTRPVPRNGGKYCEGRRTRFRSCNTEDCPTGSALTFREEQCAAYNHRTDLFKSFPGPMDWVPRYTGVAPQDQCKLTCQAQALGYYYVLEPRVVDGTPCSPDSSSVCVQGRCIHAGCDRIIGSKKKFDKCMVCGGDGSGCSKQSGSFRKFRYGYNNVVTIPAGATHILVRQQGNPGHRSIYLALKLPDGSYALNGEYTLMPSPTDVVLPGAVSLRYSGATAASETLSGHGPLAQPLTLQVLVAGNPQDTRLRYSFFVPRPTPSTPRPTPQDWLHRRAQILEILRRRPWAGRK
Method: The recombinant Agg-1 proteins pretreated with the various concentrations of the compound for 10 to 15 min. The reaction was initiated by addition of the WAAG-3R substrate at a final concentration of 25 uM. The reaction is monitored at excitation of 340 nm and emission of 420 nm over a period of 30 min in a fluorimeter (GeminiXS; Molecular Devices Corp., Sunnyvale, CA).

Sequence of Disintegrin and metalloproteinase domain-containing protein 17 (P78536 whole entry, the tested form may be a part): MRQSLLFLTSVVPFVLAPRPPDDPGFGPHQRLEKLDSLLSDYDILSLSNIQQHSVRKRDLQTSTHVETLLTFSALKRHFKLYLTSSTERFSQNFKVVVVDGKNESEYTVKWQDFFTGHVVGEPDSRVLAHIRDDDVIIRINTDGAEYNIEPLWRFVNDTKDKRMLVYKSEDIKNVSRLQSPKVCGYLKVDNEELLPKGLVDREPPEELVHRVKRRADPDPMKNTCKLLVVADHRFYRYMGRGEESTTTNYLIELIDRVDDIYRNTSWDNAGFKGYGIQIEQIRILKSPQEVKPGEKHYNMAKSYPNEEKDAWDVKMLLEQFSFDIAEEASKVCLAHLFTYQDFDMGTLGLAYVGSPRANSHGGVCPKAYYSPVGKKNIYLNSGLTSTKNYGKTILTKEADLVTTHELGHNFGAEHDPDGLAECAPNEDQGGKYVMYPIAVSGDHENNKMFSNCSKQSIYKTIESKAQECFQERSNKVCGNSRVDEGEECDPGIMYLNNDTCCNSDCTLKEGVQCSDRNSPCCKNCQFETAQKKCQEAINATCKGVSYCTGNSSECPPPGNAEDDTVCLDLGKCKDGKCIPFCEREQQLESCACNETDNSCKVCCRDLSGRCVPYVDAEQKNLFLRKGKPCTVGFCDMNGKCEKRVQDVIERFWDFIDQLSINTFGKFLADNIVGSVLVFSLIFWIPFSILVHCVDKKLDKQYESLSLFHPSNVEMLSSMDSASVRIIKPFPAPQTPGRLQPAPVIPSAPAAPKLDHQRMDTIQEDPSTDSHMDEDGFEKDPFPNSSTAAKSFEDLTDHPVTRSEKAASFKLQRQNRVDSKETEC
Sequence of 72 kDa type IV collagenase (P08253 whole entry): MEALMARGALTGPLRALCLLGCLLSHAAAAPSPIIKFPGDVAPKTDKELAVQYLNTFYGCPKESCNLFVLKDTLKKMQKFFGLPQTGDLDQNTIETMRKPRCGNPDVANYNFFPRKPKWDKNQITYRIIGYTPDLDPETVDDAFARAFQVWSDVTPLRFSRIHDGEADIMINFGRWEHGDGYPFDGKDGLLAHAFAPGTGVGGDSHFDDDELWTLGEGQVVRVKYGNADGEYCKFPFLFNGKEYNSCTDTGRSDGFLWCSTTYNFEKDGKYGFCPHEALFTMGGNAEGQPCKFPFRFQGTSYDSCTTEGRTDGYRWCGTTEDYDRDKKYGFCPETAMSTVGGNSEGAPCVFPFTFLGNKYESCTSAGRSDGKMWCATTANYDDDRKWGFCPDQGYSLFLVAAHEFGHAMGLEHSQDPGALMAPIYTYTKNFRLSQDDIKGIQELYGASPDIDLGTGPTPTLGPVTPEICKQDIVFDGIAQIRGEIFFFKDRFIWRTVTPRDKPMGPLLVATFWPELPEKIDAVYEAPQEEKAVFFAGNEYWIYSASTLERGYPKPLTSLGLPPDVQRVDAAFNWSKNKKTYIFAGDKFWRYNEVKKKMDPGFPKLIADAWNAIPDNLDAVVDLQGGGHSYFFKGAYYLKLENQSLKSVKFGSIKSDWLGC

Work on `CC#CCOc1ccc(S(=O)(=O)N2CCSC(C)(C)[C@@H]2C(=O)NO)cc1` [(3S)-4-{[4-(but-2-yn-1-yloxy)benzene]sulfonyl}-N-hydroxy-2,2-dimethylthiomorpholine-3-carboxamide] yielded an IC50 [1] of 8.4 nM, an IC50 [2] of 4.7 nM and an IC50 (Interstitial collagenase) of 6.6 nM. For the same compound, the IC50 (Matrilysin) was 26 nM, the IC50 [3] was 26 nM and the IC50 [4] was 100 nM.
